Assay results as given in ChEMBL document CHEMBL1201862, “PubChem BioAssay data set” (2004).
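Step 1: Grow cells in 96-well plates. Step 2: Expose to compound for 48 hours at 5 concentrations. Step 3: Interpolate endpoints linearly; if unreached, use highest concentration. GI50 marks 50% less growth.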 Activity calls are given as the source filed them. Rule as the data show it: active = GI50 up to about 1.1 µM and inactive = higher.

What was measured:
Test in all cases: growth of human tumour cells (NCI), 48 h
SW-620 = test system: SW-620
A549 = test system: A549
M14 = test system: M14
SNB-75 = test system: SNB-75
HCT-116 = test system: HCT-116
LOX IMVI = test system: LOX IMVI
NCI-H226 = test system: NCI-H226
786-0 = test system: 786-0
IGROV-1 = test system: IGROV-1
HT-29 = test system: HT-29
HCC 2998 = test system: HCC 2998
UO-31 = test system: UO-31
OVCAR-8 = test system: OVCAR-8
DU-145 = test system: DU-145
SF-539 = test system: SF-539
HOP-62 = test system: HOP-62
COLO 205 = test system: COLO 205
HCT-15 = test system: HCT-15
MOLT-4 = test system: MOLT-4

| SMILES | GI50 (SW-620) | GI50 (A549) | GI50 (M14) | GI50 (SNB-75) | GI50 (HCT-116) | GI50 (LOX IMVI) | GI50 (NCI-H226) | GI50 (786-0) | GI50 (IGROV-1) | GI50 (HT-29) | GI50 (HCC 2998) | GI50 (UO-31) | GI50 (OVCAR-8) | GI50 (DU-145) | GI50 (SF-539) | GI50 (HOP-62) | GI50 (COLO 205) | GI50 (HCT-15) [µM] | GI50 (MOLT-4) |
| --- | --- | --- | --- | --- | --- | --- | --- | --- | --- | --- | --- | --- | --- | --- | --- | --- | --- | --- | --- |
| CN(C)S(=O)(=O)Nc1ccccn1 | > 100 µM (inactive) | > 100 µM (inactive) | > 100 µM (inactive) | > 100 µM (inactive) | > 100 µM (inactive) | > 100 µM (inactive) | > 100 µM (inactive) | > 100 µM (inactive) | > 100 µM (inactive) | > 100 µM (inactive) | > 100 µM (inactive) | > 100 µM (inactive) | > 100 µM (inactive) | > 100 µM (inactive) | > 100 µM (inactive) | > 100 µM (inactive) | > 100 µM (inactive) | > 100 | – |
| OCCCCCNc1ccnc2cc(Cl)ccc12 | > 100 µM (inactive) | > 100 µM (inactive) | > 100 µM (inactive) | > 100 µM (inactive) | 33.7 µM (inactive) | > 10 µM (inactive) | 74.5 µM (inactive) | > 100 µM (inactive) | > 100 µM (inactive) | 29.2 µM (inactive) | > 100 µM (inactive) | 24.2 µM (inactive) | 64.1 µM (inactive) | – | > 100 µM (inactive) | > 100 µM (inactive) | 33.7 µM (inactive) | > 100 | 24.6 µM (inactive) |
| COc1cc(Nc2nc3cc(C(F)(F)F)ccc3nc2-c2ccccc2)cc(OC)c1OC | > 100 µM (inactive) | 92.3 µM (inactive) | > 100 µM (inactive) | 39.7 µM (inactive) | > 10 µM (inactive) | > 100 µM (inactive) | > 100 µM (inactive) | 40.7 µM (inactive) | 27 µM (inactive) | > 100 µM (inactive) | > 100 µM (inactive) | > 100 µM (inactive) | > 100 µM (inactive) | – | 54.8 µM (inactive) | 18.9 µM (inactive) | > 100 µM (inactive) | > 100 | > 100 µM (inactive) |
| NC(=O)/N=C1\NC(Cc2ccccc2)C(=O)N1Cc1ccccc1 (stereo unspecified) | > 100 µM (inactive) | > 100 µM (inactive) | > 100 µM (inactive) | 89.9 µM (inactive) | > 100 µM (inactive) | > 100 µM (inactive) | > 100 µM (inactive) | > 100 µM (inactive) | > 100 µM (inactive) | > 100 µM (inactive) | > 100 µM (inactive) | > 100 µM (inactive) | > 100 µM (inactive) | – | > 100 µM (inactive) | > 100 µM (inactive) | > 100 µM (inactive) | > 100 | > 100 µM (inactive) |
| C#CCN(N=O)C(=O)NC(CCCNC(=O)OCc1ccccc1)C(=O)OCc1ccccc1 (stereo unspecified) | 55.8 µM (inactive) | > 100 µM (inactive) | > 100 µM (inactive) | > 100 µM (inactive) | > 100 µM (inactive) | 52.4 µM (inactive) | > 100 µM (inactive) | > 100 µM (inactive) | > 100 µM (inactive) | > 100 µM (inactive) | > 100 µM (inactive) | > 100 µM (inactive) | 43.4 µM (inactive) | – | 75.7 µM (inactive) | > 100 µM (inactive) | 91.2 µM (inactive) | 76.4 | 24.8 µM (inactive) |
| CCN1C(=O)/C(=C\c2coc3ccccc3c2=O)SC1=S | 49.4 µM (inactive) | > 100 µM (inactive) | > 100 µM (inactive) | 41.2 µM (inactive) | 64 µM (inactive) | 42.1 µM (inactive) | > 100 µM (inactive) | 73.8 µM (inactive) | > 100 µM (inactive) | > 100 µM (inactive) | > 100 µM (inactive) | > 100 µM (inactive) | > 100 µM (inactive) | – | 32.8 µM (inactive) | 61.9 µM (inactive) | > 100 µM (inactive) | 39.1 | > 100 µM (inactive) |
| Cc1c2ncccc2c(C)c2c1[nH]c1ccccc12 | 6.79 µM (inactive) | 6.78 µM (inactive) | 17.6 µM (inactive) | 10.6 µM (inactive) | 5.27 µM (inactive) | 5.66 µM (inactive) | 12.7 µM (inactive) | 9.38 µM (inactive) | 12.3 µM (inactive) | 11.3 µM (inactive) | 12.3 µM (inactive) | > 10 µM (inactive) | 10.5 µM (inactive) | – | 13.2 µM (inactive) | 11.8 µM (inactive) | 13.1 µM (inactive) | 7.24 | 2.02 µM (inactive) |
| O=C(c1ccccc1)c1nnc(C(=O)c2ccccc2)nn1 | > 344 µM (inactive) | > 344 µM (inactive) | 272 µM (inactive) | 83.4 µM (inactive) | > 344 µM (inactive) | 282 µM (inactive) | > 344 µM (inactive) | 179 µM (inactive) | > 344 µM (inactive) | > 344 µM (inactive) | 36.3 µM (inactive) | > 344 µM (inactive) | > 344 µM (inactive) | – | > 344 µM (inactive) | > 344 µM (inactive) | > 344 µM (inactive) | > 344 | > 344 µM (inactive) |
| O=Cc1cc2sc(C=O)cc2s1 | > 100 µM (inactive) | > 100 µM (inactive) | > 100 µM (inactive) | > 100 µM (inactive) | > 100 µM (inactive) | > 100 µM (inactive) | 26.1 µM (inactive) | > 100 µM (inactive) | > 100 µM (inactive) | > 100 µM (inactive) | > 100 µM (inactive) | > 100 µM (inactive) | > 100 µM (inactive) | – | > 100 µM (inactive) | > 100 µM (inactive) | > 100 µM (inactive) | > 100 | > 100 µM (inactive) |
| CCCCCCCC/C=C1\CCC(CN(C)C)C1=O (stereo unspecified) | 3.33 µM (inactive) | 19.3 µM (inactive) | 4.88 µM (inactive) | 5.25 µM (inactive) | 2.96 µM (inactive) | 1.92 µM (inactive) | 22.3 µM (inactive) | 1.53 µM (inactive) | 8.17 µM (inactive) | 4.35 µM (inactive) | 9.57 µM (inactive) | 11 µM (inactive) | 3.23 µM (inactive) | – | 4.82 µM (inactive) | 12.2 µM (inactive) | 4.16 µM (inactive) | 2.77 | 2.68 µM (inactive) |
| O=C1C2C3C=CC(C2C(=O)N1COP(=O)(O)O)C1C2C(=O)N(COP(=O)(O)O)C(=O)C2C31 (stereo unspecified) | > 45.7 µM (inactive) | > 69.7 µM (inactive) | > 100 µM (inactive) | > 100 µM (inactive) | > 42.6 µM (inactive) | > 43.4 µM (inactive) | > 100 µM (inactive) | > 71.6 µM (inactive) | > 100 µM (inactive) | > 100 µM (inactive) | > 100 µM (inactive) | > 100 µM (inactive) | > 100 µM (inactive) | – | > 100 µM (inactive) | > 100 µM (inactive) | > 47.5 µM (inactive) | > 41.3 | > 100 µM (inactive) |
| O=C(O)c1ccccc1NS(=O)(=O)c1ccc(Cl)cc1 | > 100 µM (inactive) | > 100 µM (inactive) | > 100 µM (inactive) | > 100 µM (inactive) | > 100 µM (inactive) | > 100 µM (inactive) | > 100 µM (inactive) | > 100 µM (inactive) | > 100 µM (inactive) | > 100 µM (inactive) | > 100 µM (inactive) | > 100 µM (inactive) | > 100 µM (inactive) | – | > 100 µM (inactive) | > 100 µM (inactive) | > 100 µM (inactive) | > 100 | > 100 µM (inactive) |
